Experimental data: PMC9694965, “Design of 4-Substituted Sulfonamidobenzoic Acid Derivatives Targeting Coxsackievirus B3” (Life, 2022)
Values belong to the compound of their own block, whether it stands above or below them.

Key:
[1] = Cytotoxicity assay (MTT) in Vero cells; type: cell-based; conditions: African green monkey; for CC50 at 72 h: 72 h incubation with the compound only; for CC50 at 24 h: 24 h incubation with the compound only
Description: (§1) Vero cells were seeded in 96-well plates in 24 h before the assay. On the assay day, the cells were washed with saline and tested compounds in appropriate concentrations (300–3 μg/mL) in MEM without FBS were added to cells. No compounds were added to virus control wells. The plates were incubated for 1 h at 37 °C at 5% CO2. The cells were then infected with CVB3 Nancy (m.o.i range of 1–0.001) and incubated for 72 h at 37 °C at 5% CO2. No virus was added to the cytotoxicity control wells. Cell viability was then assessed using an MTT test with the following procedure. The cells were washed with saline, and a solution of 3-(4,5-dimethylthiazolyl-2) 2,5-diphenyltetrazolium bromide (ICN Biochemicals Inc., Aurora, OH, USA) ([…]) in MEM was added to the wells (100 µL per well). After 2 h of incubation at 37 °C in 5% CO2, the supernatant from wells was discarded, and the formazan residue was dissolved in DMSO (100 µL per well). The optical density of cells was then measured on a Multiskan multifunctional reader (Thermo Fisher Scientific, Shanghai, China) at a wavelength of 540 nm.
(§2) The microtetrazolium test (MTT) was used to study the cytotoxicity of the compounds. The permissive cell line Vero was seeded in 96-well plates in Eagles minimal essential medium (MEM) supplemented with 10% FBS. After 24 h, the media were removed, and the wells were washed with saline. Compounds were dissolved in DMSO, and a series of two-fold dilutions of each compound in MEM without FBS were prepared and added to the cells in triplicates. […] The MTT was then performed as described above. Next, the optical density of cells was measured on a Multiskan multifunctional reader (Thermo Fisher Scientific, Shanghai, China) at a wavelength of 540 nm and plotted against the concentration of the compounds to generate the dose–response curve. The 50% cytotoxic dose (CC50) of each compound (i.e., the compound concentration that causes the death of 50% of cells in a culture, or decreases the optical density twice, as compared to the control wells) was calculated using a four-parameter logistic nonlinear regression model (GraphPad Prism 6.01).

Vero cells = test: Cytotoxicity assay (MTT) in Vero cells; type: cell-based; conditions: incubation with the compound only
Description: as §1, §2

CVB3 Nancy [2] = test: Cytoprotection assay (MTT) in Vero cells infected with CVB3 Nancy; type: cell-based, Coxsackievirus B3; conditions: for EC50: Enterovirus B, Vero cells infected with CVB3 Nancy at m.o.i. 0.001, 72 h, MTT, read-out: EC50 (50% cytoprotective concentration); for SI (selectivity index, ratio CC50/IC50): cytoprotection assay, CC50 72 h / EC50
Description: as §1
The cytoprotective activity of compounds was considered to be their ability to increase the values of OD compared to control wells (using only a virus, without drugs). Based on the results obtained, the values of IC50, i.e., the concentration of compounds that result in 50% cells protection were calculated for m.o.i. 0.001 using GraphPad Prism 6.01 software.

[3] = tested on: Coxsackievirus B3 (Nancy); test: Viral yield reduction assay in Vero cells; type: cell-based; conditions: for IC50: Enterovirus B, B3 / CVB3, viral yield reduction, Vero cells, CVB3 Nancy at m.o.i. 0.01, 24 h, read-out: IC50 (50% virus-inhibiting concentration); for SI (selectivity index, ratio CC50/IC50): viral yield reduction assay, CC50 24 h / IC50
Description: Coxsackievirus B3 (CVB3, strain Nancy) was obtained from the collection of viruses of the Pasteur Institute (St. Petersburg, Russia). The permissive cell line Vero (ATCC #CCL-81) was used in the study. Infectious titers (in a 50%-tissue culture infection dose, TCID50) were determined in Vero cells for CVB3 by endpoint dilution assay using the following procedure. Permissive cells were seeded into 96-wells plates in Eagles minimal essential medium (MEM) supplemented with 5% fetal bovine serum (FBS). After 24 h, the medium was aspirated, the wells were washed with saline, fresh MEM without FBS was added to the wells and the cells were infected with serial tenfold dilutions of virus stocks (100 µL per well, 4 wells for each dilution). The plates were incubated at +37 °C in 5% CO2 and observed daily for cytopathic effect (CPE). After 72 h the viral titer was calculated in TCID50 using the method of Spearmen-Carber.
The antiviral activity of the compounds was evaluated using viral yield reduction assay. The respective permissive cell line Vero was seeded in MEM supplemented with 5% FBS in 24-well plates. When the cell confluence reached 100%, the compounds tested were dissolved in DMSO, and a series of three-fold dilutions of each compound in MEM without FBS was added to the cells, and incubated at 37 °C in 5% CO2. After 1 h, the media were discarded; equal volumes of fresh serial dilutions of each compound and viral suspension in MEM without FBS at […] were added. In control wells, only MEM without FBS was added. No compounds were added in the virus control wells. The plates were incubated at 4 °C for 1 h. The unbound virus was then washed away and, again, three-fold dilutions of each compound (the final concentration 50–0.6 µg/mL) in MEM without FBS were added to the wells. After 24 h of incubation at 37 °C in 5% CO2, the infectious titer of viral progeny (in TCID50) for each compound concentration, cell control, and virus control wells were determined in permissive cell lines by endpoint dilution assay as described above.
The titer of virus progeny was plotted against log concentration of the compounds tested to generate the dose–response curve. The 50% inhibition concentration (IC50) of each compound tested (i.e., the compound concentration that decreases the infectious viral progeny titer twice, as compared to the control wells) was calculated using a four-parameter logistic nonlinear regression model (GraphPad Prism 6.01).

CVB3 Nancy [4] = test: Thermostability assay (capsid binding, heat inactivation of virus); set-up: species or system Coxsackievirus B3; conditions: pre-incubation 30 min at 37 °C, thermal gradient 37-55 °C for 2 min; for Effect on heat inactivation of CVB3 (capsid stabilization): versus virus control
Description: CVB3 Nancy was pre-incubated with the compounds tested or an equal volume of MEM (virus control) for 30 min at +37 °C in sterile thin-walled 200 μL PCR-tubes (7 tubes per each treatment condition) in BioRad CFX PCR-machine. The thermal gradient of 37–55 °C for 2 min was then applied, followed by rapid cooling to 4 °C. Subsequently, the infectious virus load at each thermal condition for each compound tested was quantified by end-point dilution assay.

- melting point: 217 to 220 °C
Structure (SMILES): NC(=O)C1CCN(S(=O)(=O)c2ccc(N3C(=O)c4ccccc4C3=O)cc2)CC1 [Compound 2h, 1-((4-(1,3-Dioxoisoindolin-2-yl)phenyl)sulfonyl)piperidine-4-carboxamide]
- CC50 at 72 h [1]: > 726 µM
- CC50 (Vero cells): exceeded the maximum concentration used in the assay
- EC50 (CVB3 Nancy [2]): > 726 µM
- SI (selectivity index, ratio CC50/IC50) (CVB3 Nancy [2]): >1

- melting point: 240 to 242 °C
Structure (SMILES): NC(=O)c1ccc(NS(=O)(=O)c2ccc(N3C(=O)c4ccccc4C3=O)cc2)cc1 [Compound 2c, 4-(4-(1,3-Dioxoisoindolin-2-yl)phenylsulfonamido)benzamide]
- CC50 at 72 h [1]: 472 ± 38.2 µM
- EC50 (CVB3 Nancy [2]): > 475 µM
- SI (selectivity index, ratio CC50/IC50) (CVB3 Nancy [2]): <1

- IC50 [3]: 19.6 ± 0.49 µM
- melting point: 265 to 267 °C
Structure (SMILES): O=C(O)c1ccc(NS(=O)(=O)c2ccc(N3C(=O)C4C5CCC(C5)C4C3=O)cc2)cc1 (stereo not shown) [Compound 7d, 4-(4-(1,3-Dioxohexahydro-1H-4,7-methanoisoindol-2(3H)-yl)phenylsulfonamido)benzoic acid]
- SI (selectivity index, ratio CC50/IC50) [3]: >58
- CC50 at 24 h [1]: > 1140 µM
- CC50 at 72 h [1]: 681 ± 54.8 µM
- EC50 (CVB3 Nancy [2]): < 8.39 µM
- SI (selectivity index, ratio CC50/IC50) (CVB3 Nancy [2]): >81.1

Structure (SMILES): CCOC(=O)c1ccc(NS(=O)(=O)c2ccc(NC(=O)c3ccccc3C(=O)O)cc2)cc1 [Compound 3, 2-((4-(N-(4-(Ethoxycarbonyl)phenyl)sulfamoyl)phenyl)carbamoyl)benzoic acid]
- CC50 at 72 h [1]: > 640 µM
- EC50 (CVB3 Nancy [2]): > 427 µM
- SI (selectivity index, ratio CC50/IC50) (CVB3 Nancy [2]): >1

- melting point: 261 to 263 °C
Structure (SMILES): NS(=O)(=O)c1ccc(NS(=O)(=O)c2ccc(N3C(=O)c4ccccc4C3=O)cc2)cc1 [Compound 2e, 4-(1,3-Dioxoisoindolin-2-yl)-N-(4-sulfamoylphenyl)benzenesulfonamide]
- CC50 at 72 h [1]: 437 ± 35.1 µM
- EC50 (CVB3 Nancy [2]): > 437 µM
- SI (selectivity index, ratio CC50/IC50) (CVB3 Nancy [2]): <1

- IC50 [3]: 19.6 ± 0.52 µM
- melting point: 241 to 243 °C
Structure (SMILES): O=C(O)c1ccc(NS(=O)(=O)c2ccc(N3C(=O)C4C5C=CC(C5)C4C3=O)cc2)cc1 (stereo not shown) [Compound 7c, 4-(4-(1,3-Dioxo-3a,4,7,7a-tetrahydro-1H-4,7-methanoisoindol-2(3H)-yl)phenylsulfonamido)benzoic acid]
- SI (selectivity index, ratio CC50/IC50) [3]: >58
- CC50 at 24 h [1]: > 1140 µM
- CC50 at 72 h [1]: > 684 µM
- CC50 (Vero cells): exceeded the maximum concentration used in the assay
- EC50 (CVB3 Nancy [2]): < 8.44 µM
- SI (selectivity index, ratio CC50/IC50) (CVB3 Nancy [2]): >81.1

- melting point: 220 to 222 °C
Structure (SMILES): CC(=O)Nc1ccc(NS(=O)(=O)c2ccc(N3C(=O)c4ccccc4C3=O)cc2)cc1 [Compound 2f]
- CC50 at 72 h [1]: 181 ± 19.2 µM
- EC50 (CVB3 Nancy [2]): > 689 µM
- SI (selectivity index, ratio CC50/IC50) (CVB3 Nancy [2]): <1

- melting point: 207 to 210 °C
Structure (SMILES): O=C(O)C1CCN(S(=O)(=O)c2ccc(N3C(=O)c4ccccc4C3=O)cc2)CC1 [Compound 2g, 1-((4-(1,3-Dioxoisoindolin-2-yl)phenyl)sulfonyl)piperidine-4-carboxylic acid]
- CC50 at 72 h [1]: > 228 µM
- EC50 (CVB3 Nancy [2]): 12.3 ± 2.07 µM
- SI (selectivity index, ratio CC50/IC50) (CVB3 Nancy [2]): >18.5

- melting point: 284 to 286 °C
Structure (SMILES): O=C(O)c1ccc(NS(=O)(=O)c2ccc(N3C(=O)c4cccc5cccc(c45)C3=O)cc2)cc1 [Compound 7e, 4-(4-(1,3-Dioxo-1H-benzo[de]isoquinolin-2(3H)-yl)phenylsulfonamido)benzoic acid]
- CC50 at 72 h [1]: 531 ± 48.4 µM
- EC50 (CVB3 Nancy [2]): > 635 µM
- SI (selectivity index, ratio CC50/IC50) (CVB3 Nancy [2]): <1

Structure (SMILES): O=C(O)c1ccc(NS(=O)(=O)c2ccc(N3C(=O)CCC3=O)cc2)cc1 [Compound 7a, 4-(4-(2,5-Dioxopyrrolidin-1-yl)phenylsulfonamido)benzoic acid]
- IC50 [3]: 4.22 ± 0.35 µM
- SI (selectivity index, ratio CC50/IC50) [3]: >316
- Temperature to which infectivity of CVB3 was preserved (CVB3 Nancy [4]; concentrations greatly exceeding IC50): 52.4 °C
- Effect on heat inactivation of CVB3 (capsid stabilization) (CVB3 Nancy [4]): heat inactivation of CVB3 changed to higher temperatures
- CC50 at 24 h [1]: > 1340 µM
- CC50 at 72 h [1]: 345 ± 32.2 µM
- melting point: 243 to 245 °C (dec.)
- EC50 (CVB3 Nancy [2]): < 9.88 µM
- SI (selectivity index, ratio CC50/IC50) (CVB3 Nancy [2]): >34.8

- IC50 [3]: 11.1 ± 0.16 µM
- melting point: 250 to 252 °C
Structure (SMILES): O=C(O)c1ccc(NS(=O)(=O)c2ccc(N3C(=O)C4CC=CCC4C3=O)cc2)cc1 (stereo not shown) [Compound 7b, 4-(4-(1,3-Dioxo-3a,4,7,7a-tetrahydro-1H-isoindol-2(3H)-yl)phenylsulfonamido)benzoic acid]
- CC50 at 24 h [1]: 933 ± 75.1 µM
- CC50 at 72 h [1]: 474 ± 38.5 µM
- EC50 (CVB3 Nancy [2]): < 8.67 µM
- SI (selectivity index, ratio CC50/IC50) (CVB3 Nancy [2]): >54.6

- melting point: 224 to 226 °C
Structure (SMILES): N#Cc1ccc(NS(=O)(=O)c2ccc(N3C(=O)c4ccccc4C3=O)cc2)cc1 [Compound 2d, N-(4-Cyanophenyl)-4-(1,3-dioxoisoindolin-2-yl)benzenesulfonamide]
- CC50 at 72 h [1]: 625 ± 57.5 µM
- EC50 (CVB3 Nancy [2]): 744 ± 67.3 µM
- SI (selectivity index, ratio CC50/IC50) (CVB3 Nancy [2]): <1

- IC50 [3]: 37.9 ± 1.08 µM
Structure (SMILES): O=C(O)CCCNS(=O)(=O)c1ccc(N2C(=O)c3ccccc3C2=O)cc1 [Compound 2i, 4-(4-(1,3-Dioxoisoindolin-2-yl)phenylsulfonamido)butanoic acid]
- SI (selectivity index, ratio CC50/IC50) [3]: 33
- CC50 at 24 h [1]: 1260 ± 110 µM
- CC50 at 72 h [1]: 283 ± 31.1 µM
- EC50 (CVB3 Nancy [2]): < 28.6 µM
- SI (selectivity index, ratio CC50/IC50) (CVB3 Nancy [2]): >10

Structure (SMILES): CCOC(=O)c1ccc(NS(=O)(=O)c2ccc(N3C(=O)c4ccccc4C3=O)cc2)cc1 [Compound 2b, Ethyl 4-(4-(1,3-dioxoisoindolin-2-yl)phenylsulfonamido)benzoate]
- CC50 at 72 h [1]: 40 ± 4.12 µM
- EC50 (CVB3 Nancy [2]): > 444 µM
- SI (selectivity index, ratio CC50/IC50) (CVB3 Nancy [2]): <1

Structure (SMILES): O=C(O)c1ccc(NS(=O)(=O)c2ccc(N3C(=O)c4ccccc4C3=O)cc2)cc1 [Compound 2a, 4-(4-(1,3-Dioxoisoindolin-2-yl)phenylsulfonamido)benzoic acid, reference compound]
- IC50 [3]: 5.54 ± 0.89 µM
- SI (selectivity index, ratio CC50/IC50) [3]: >213
- Effect on heat inactivation of CVB3 (capsid stabilization) (CVB3 Nancy [4]): heat inactivation of CVB3 changed to higher temperatures
- CC50 at 24 h [1]: > 1180 µM
- CC50 at 72 h [1]: > 710 µM
- CC50 (Vero cells): exceeded the maximum concentration used in the assay
- EC50 (CVB3 Nancy [2]): < 8.76 µM
- SI (selectivity index, ratio CC50/IC50) (CVB3 Nancy [2]): >81.1
